Earlier results in patent publication EP1450788B1, “USE OF COUMARIN OR ITS HYDROXY DERIVATIVE FOR THE TREATMENT OF MEDIUM OR SEVERE VASCULAR AND/OR LYMPHATIC EDEMA” (priority 2001, dated 2003).

Legend:
[1] = system: lymphoedema of the upper limbs; conditions: 90 mg/day versus 135 mg/day; lymphoedema of the upper limbs secondary to surgery and irradiation for breast cancer
hepatic tissue = conditions: oral doses of about 200 mg/day

| haematic levels, transdermal route relative to oral route (transdermal administration versus oral route) [fold] | Structure (SMILES) | haematic levels by the transdermic route (transdermal administration) | clinical efficacy (apparent benefits of the two coumarin dosages) [1] | cytosolytic hepatocytic enzymes in the plasma (biochemical markers of the hepatic damage) (hepatic tissue) |
| --- | --- | --- | --- | --- |
| – | O=c1ccc2ccc(O)cc2o1 [7-hydroxy-coumarin, 7-hydroxycoumarin] | a decrease of the haematic levels | – | – |
| 10 | O=c1ccc2ccccc2o1 [coumarin, 5,6-benzopyran-2-one] | – | No difference was found | high concentrations |
